Values quoted from earlier work, collected in patent publication US10029020B2, “Fullerene compositions” (UNIVERSITEIT GENT, priority 2015, dated 2018).

Key:
rats = settings: regular administration; Moussa et al., Biomaterials 2012

water solubility: 10^−8 ng/L
Compound: c12c3c4c5c1c1c6c7c2c2c8c3c3c9c4c4c%10c5c5c1c1c6c6c%11c7c2c2c7c8c3c3c8c9c4c4c9c%10c5c5c1c1c6c6c%11c2c2c7c3c3c8c4c4c9c5c1c1c6c2c3c41 [Polymer C60, buckminsterfullerene (C60)]
lifespan of rats (rats): doubled
